Results as given in patent publication US20140227408A1, “MEAT TREATMENT AND PRESERVATION METHOD” (RED MEAT AS, priority 2011, published 2014).
Marks after values point to notes of the source that are not given here.

Tests used:
Set-up in all cases: species or system cattle
[1] = Colour L*, a*, b* of treated ground beef, low oxygen packaging (Example 5); conditions: for L* / a* / b*: citrate High level (0.025 mol/kg), low oxygen, adjusted mean ± standard error
Source text: (§1) Beef M. semimembranosus (M.S.) and beef fat tissue were collected four days post mortem (Fatland A/S, Oslo, Norway). The packaging day is defined as day zero, however, the tissues were 4 days post mortem on packing day. A piece of meat from proximal end was cut from each muscle in order to measure oxygen consumption, pH and surface colour. Fat tissue from pigs fed rapeseed and vitamin E to enhance the content of polyunsaturated fatty acids were from HKScan (Ruokatalo, Finland). The fat tissue was transported vacuum-packaged and frozen. Samples of minced fat tissue were removed for fatty acid analysis.
(§2) The beef muscles were cut into pieces of approximately 10×5 cm and mixed to 14% w/w fat by using the fat tissues. Beef fat and pork fat tissues were ground twice with either raw beef from four young (16-19 months) or four old (46-81 months) cattle. […] The ground meat was blended manually with solutions (all at pH 5.8) with various TCA and glycolytic ingredients (see below).
(§3) To maintain pH at 5.8 the solutions were prepared by mixing the acid form and the corresponding sodium salt of these chemicals.
[…] The solution was quickly and properly stirred into the minced meat and the blended system was subsequently packaged. […] Two reference samples with 40 ml of distilled water added to 360 gram of ground beef were also prepared each of the four production day, i.e. altogether 8 references were prepared. The samples were packaged in either low or high oxygen atmosphere.
(§4) The ground beef was packaged in black amorphous polyethylene terephthalate (APET) trays that were sealed with ethylene vinyl alcohol (EVOH) top films. The trays and films (Wipak Multipet and Wipak Biaxer, both Wipak, Nastola, Finland) had oxygen transmission rates of 7 and 5 cm^3/m^2/24 h at 23° C. at 50% relative humidity. Packaging was carried out within 1 hour after grinding. The samples were stored in darkness at 4° C. for 8 days in a high-oxygen atmosphere (75% oxygen and 25% CO2) and for 13 days in a low-oxygen atmosphere (60% CO2 and 40% N2). These food grade gas mixtures were supplied by AGA (Oslo, Norway).
(§5) The colour of the ground meat samples was measured with a Konica Minolta Chroma Meter CR 410 (Konica Minolta Sensing Inc., Osaka, Japan) using the glass light projection tube CR A 33e with wide illumination area (61 mm) and illuminant D65. The instrument was calibrated each day by measuring a white ceramic plate (L*=97.9; a*=0.05; b*=2). All colour measurements were made with 3 replicates (CIE, 1976, “Recommendations on uniform colour spaces-colour difference equations” (Vol. Supplement No. 2 to CIE). Paris, France: Commission Internationale de l'Eclairage).
(§6) The colour of the samples packaged in high O2 was measured after 0, 1, 3, 6 and 8, days of storage from packaging day, while low O2 samples were measured at 0 to 13 days of storage using Minolta and reflectance measurements.
The experimental design is visualized in FIG. 5. A 2^2 design (animal age and type of fat tissue) was split over 4 experimental days (FIG. 5, and Tables 10 and 11). To each corner of this 2^2 design was added a 3 component (succinate, pyruvate and glutamate-malate additions; 0, 50 and 100%) simplex lattice mixture design with 2 additional centre experiments as shown in FIG. 5.

myoglobin in ground beef [2] = assay: Myoglobin states (DMb, OMb, MMb) by reflectance spectra of treated ground beef, low oxygen packaging (Example 5); conditions: for DMb / MMb / OMb: citrate High level (0.025 mol/kg), low oxygen, adjusted mean ± standard error
Source text: as §1, §2, §3
(§7) 40 g of 0.1 M or 0.05 M solutions were added to ground beef-fat mixture (360 g) to a total weight of 400 g. The solution was quickly and properly stirred into the minced meat and the blended system was subsequently packaged. […] Two reference samples with 40 ml of distilled water added to 360 gram of ground beef were also prepared each of the four production day, i.e. altogether 8 references were prepared. The samples were packaged in either low or high oxygen atmosphere.
as §4
(§8) Samples were scanned, […], with a Foss NIRSystems OptiProbe™ 6500 Analyzer (Foss NIRSystems Inc., Maryland, USA) without opening of the package. The package was turned upside-down before measurements so that the meat would fall on the packaging film. The samples were scanned with three random placements of the probe on the package surface in order to increase the scanning area and reduce the measurement errors. Thirty-two scans for both reference and samples were acquired and averaged on each measured area. All measurements were performed at room temperature (approx. 20° C.) according to Khatri, et al. (Meat Sci. (2012) 91(3): 223-231). These spectra were used to predict OMb, MMb and DMb levels. Calibration was performed using comminuted meat with 10% w/w added water.
as §6
(§9) The statistical analysis was performed according to the approach described by Langsrud et al. (J. Appl. Statist. (2007) 34:1275-1296) and implemented in the 50-50 MANOVA software (http://www.langsrud.com/stat/program.htm). This program handles mixture designs as generalized categorical variables (generalized ANOVA). When using this method one can always formulate equivalent models that use the individual mixture variables as ordinary (one degree of freedom) regression variables. Then one arbitrary mixture variable has to be omitted (slack variable).

myoglobin in ground beef [3] = assay: Myoglobin states (DMb, OMb, MMb) by reflectance spectra of treated ground beef, high oxygen packaging (Example 5); conditions: for DMb / MMb / OMb: citrate High level, high oxygen, adjusted mean ± standard error
Source text: as §1
The beef muscles were cut into pieces of approximately 10×5 cm and mixed to 14% w/w fat by using the fat tissues. Beef fat and pork fat tissues were ground twice with either raw beef from four young (16-19 months) or four old (46-81 months) cattle. The meat had pH of 5.65 and was ground with a Seydelmann ME-130 (Seydelmann, Stuttgart, Germany) grinder through a plate with 3 mm openings. The ground meat was blended manually with solutions (all at pH 5.8) with various TCA and glycolytic ingredients (see below).
as §3, §7, §4, §8, §6
as §9, with “variable). […]” for “variable).”

[4] = Colour L*, a*, b* of treated ground beef, high oxygen packaging (Example 5); conditions: citrate High level
Source text: as §1, §2, §3, §7, §4, §5, §6
The experimental design is visualized in FIG. 5. A 2^2 design (animal age and type of fat tissue) was split over 4 experimental days (FIG. 5, and Tables 10 and 11). […] 5.

[5] = Colour (b*) of minced beef mixed with test brines, stored in high-oxygen atmosphere (Example 1); conditions: day 6 of storage, amount 1 = 0.1 mol per kg meat
Experimental: (§10) Beef fat and pork fat (high degree of unsaturation) were used with raw semimembranosus muscle from young and old cattle. Beef from the hind leg was removed, weighed, chopped, mixed with fat (14% by weight), and the various test compounds were added to the minced meat. The mixtures were packed into boxes and sealed with plastic sheeting. Packing was done with MAP to yield a low-oxygen atmosphere (60% CO2 and 40% N2) and also under a high-oxygen atmosphere (75% oxygen and 25% CO2). The samples were stored in darkness at 4° C. from 0 to 8 days for the high-oxygen atmosphere and 0 to 13 days for the MAP samples. A Cheers Packaging Machine (Promens) was used for packaging of samples. Triplicate reference samples with only 40 ml of distilled water mixed and packaged as described above were evaluated at days 6 and 8 for the high-oxygen environment and at days 6, 8, 10 and 13 for the MAP environment.
(§11) Samples of test compounds were prepared with succinate, glutamate, malate, pyruvate and citrate in different combinations, either as single chemicals or as mixtures. The acid and conjugate base of each active component was added in the appropriate ratio to provide the solutions (brines) with a pH of 5.8. As will be clear from the foregoing description, the “succinate” used in this experiment was a combination of succinic acid and sodium succinate. The “glutamate”, “malate”, etc. were used equivalently.
(§12) Meat and fat was cut into small pieces and minced (3 mm holes). 40 g of brine was added to 360 g mince and packed in the plastic packing.
(§13) Several variables were included in the design of the experiment, using a 2^3 factorial design. […] Malate and glutamate were considered together in the design and analysis, but their ratio was varied in the experiments from pure malate to pure glutamate.
(§14) Colour changes in the samples were measured with a FOSS NIRSystems™ 6500 analyser and a Konica Minolta Chroma meter CR 410 (Konica Minolta Sensing Inc., Osaka, Japan). Colour was measured using the parameters L*, a* and b* at 0, 1, 3, 6 and 8 days for samples stored in 75% oxygen. Colour changes of the samples packaged in MAP were measured at 0, 1, 3, 6, 8, 10 and 13 days of storage time.
Results from the experiments carried out on the various meat and fat samples are shown below in Tables 1 to 8. Values given for the amount of active agents in Tables 1 to 8 correspond to the molar proportion of the given agent within the brine/meat mixture, where a value of 1 corresponds to 0.1 moles active agent per kg of meat, a value of 0.5 corresponds to 0.05 mol/kg, etc. […]
The data from the experiment described in Example 1 were analyzed using an ANOVA model with all main effect and second and higher order effects according to the method described in Langsrud, Ø. […]

[6] = Colour (b*, a*) of minced beef mixed with test brines, stored in low-oxygen MAP (Examples 1-2); conditions: for b*: low oxygen (MAP), day 6 of storage, amount 1 = 0.1 mol per kg meat
Experimental: as §10, §11, §12, §13, §14
Results from the experiments carried out on the various meat and fat samples are shown below in Tables 1 to 8. Values given for the amount of active agents in Tables 1 to 8 correspond to the molar proportion of the given agent within the brine/meat mixture, where a value of 1 corresponds to 0.1 moles active agent per kg of meat, a value of 0.5 corresponds to 0.05 mol/kg, etc. […] The b* values, which are considered to be most representative of the colour changes in the meat being tested, are shown. All results correspond to measurements made on day 6 of storage
The data from the experiment described in Example 1 were analyzed using an ANOVA model with all main effect and second and higher order effects according to the method described in Langsrud, Ø. (“50-50 Multivariate Analysis of Variance for Collinear Responses” The Statistician (2002) 51, pp. 305-317). […] The mixture design was fractional.

[7] = Day 1, adjusted mean ± standard error
[8] = Day 3, adjusted mean ± standard error
[9] = Day 6, adjusted mean ± standard error
[10] = Day 8, adjusted mean ± standard error
[11] = old beef muscle mixed with beef fat
[12] = old beef muscle mixed with pork fat
[13] = young beef muscle mixed with pork fat

## O=C(O)CC(O)C(=O)O (racemic) [malate]
[1]; low oxygen packaging
  effect on yellowness (b*), in words: nominally higher b* values

## O=C(O)CC(O)(CC(=O)O)C(=O)O [Citrate]
Myoglobin in ground beef [2]; Day 1
  DMb: 42.1 ± 3.3 %
  MMb: 50.2 ± 3.0 %
  OMb: 7.8 ± 0.4 %
Myoglobin in ground beef [2]; Day 3
  DMb: 55.5 ± 3.3 %
  MMb: 39.1 ± 3.1 %
  OMb: 5.5 ± 0.4%
Myoglobin in ground beef [2]; Day 6
  DMb: 64.9 ± 3.1%
  OMb: 3.7 ± 0.4%
Myoglobin in ground beef [2]; Day 8
  DMb: 66.6 ± 3.1%
  OMb: 4.1 ± 0.4%
Myoglobin in ground beef [2]; Day 10
  DMb: 69.9 ± 3.0%
  MMb: 26.3 ± 2.9 %
  OMb: 3.8 ± 0.3%
Myoglobin in ground beef [2]; Day 13
  DMb: 72.3 ± 4.1 %
  MMb: 23.9 ± 3.8 %
  OMb: 3.8 ± 0.5 %
Myoglobin in ground beef [2]; low oxygen packaging
  effect on myoglobin states (DMb, OMb, MMb), in words: increased OMb and MMb while the DMb was reduced
Myoglobin in ground beef [3]; Day 1
  DMb: 0.0 ± 0.0 %
  MMb: 6.6 ± 0.3%
  OMb: 93.4 ± 0.6%
Myoglobin in ground beef [3]; Day 3
  DMb: 0.0 ± 0.0%
  MMb: 10.5 ± 0.6%
  OMb: 89.5 ± 0.6%
Myoglobin in ground beef [3]; Day 6
  DMb: 0.5 ± 0.3%
  MMb: 20.4 ± 0.6%
  OMb: 79.1 ± 0.7%
Myoglobin in ground beef [3]; Day 8
  DMb: 0.6 ± 0.2%
  MMb: 26.7 ± 0.7%
  OMb: 72.7 ± 0.8%
Myoglobin in ground beef [3]; high oxygen packaging
  effect on myoglobin states (DMb, OMb, MMb), in words: nominal higher values for OMb
[4]; [7]
  L*: 34.2 ± 0.3
  a*: 13.0 ± 0.2*
  b*: 4.5 ± 0.1*
[4]; [8]
  L*: 33.6 ± 0.3*
  a*: 12.3 ± 0.2*
  b*: 4.4 ± 0.1*
[4]; [9]
  L*: 33.8 ± 0.3
  a*: 11.0 ± 0.3
  b*: 4.1 ± 0.2*
[4]; [10]
  L*: 33.9 ± 0.3
  a*: 10.3 ± 0.2
  b*: 4.0 ± 0.1*
[1]; Day 1
  L*: 33.5 ± 0.3
  a*: 6.6 ± +.3*
  b*: 2.3 ± 0.2
[1]; Day 3
  L*: 33.0 ± 0.3
  a*: 7.1 ± 0.2
  b*: 2.3 ± 0.1*
[1]; Day 6
  L*: 33.3 ± 0.2*
  a*: 7.5 ± 0.2
  b*: 2.2 ± 0.1*
[1]; Day 8
  L*: 33.4 ± 0.2*
  a*: 7.5 ± 0.2
  b*: 2.1 ± 0.1*
[1]; Day 10
  L*: 33.4 ± 0.2*
  a*: 7.6 ± 0.2
  b*: 2.1 ± 0.1
[1]; Day 13
  L*: 33.2 ± 0.3*
  a*: 7.6 ± 0.4
  b*: 2.1 ± 0.2*

## N[C@@H](CCC(=O)O)C(=O)O [glutamate]
[1]; low oxygen packaging
  effect on redness (a*), in words: nominally higher a* values

## O=C(O)CCC(=O)O [succinate 1.00, succinate]
[5]; [11]
  b*: 3.45
[5]; [12]
  b*: 3.77
[5]; young beef muscle mixed with beef fat
  b*: 4.01
[5]; [13]
  b*: 4.70
[6]; low-oxygen environment, zero citrate, after 6 days storage, relative amounts of succinate, pyruvate, glutamate + malate
  a*: 9.81
[6]; [11]
  b*: 1.48
[6]; [12]
  b*: 0.98
[6]; young beef muscle mixed with beef fat, 4° C.
  b*: 1.07
[6]; [13]
  b*: 1.34
